Molecular target: T1, ALK2 (Homo sapiens, UniProt Q04771)
T1 construct: purchased ThermoFisher Scientific (Life Technologies)
T1 sequence (Q04771 21-509): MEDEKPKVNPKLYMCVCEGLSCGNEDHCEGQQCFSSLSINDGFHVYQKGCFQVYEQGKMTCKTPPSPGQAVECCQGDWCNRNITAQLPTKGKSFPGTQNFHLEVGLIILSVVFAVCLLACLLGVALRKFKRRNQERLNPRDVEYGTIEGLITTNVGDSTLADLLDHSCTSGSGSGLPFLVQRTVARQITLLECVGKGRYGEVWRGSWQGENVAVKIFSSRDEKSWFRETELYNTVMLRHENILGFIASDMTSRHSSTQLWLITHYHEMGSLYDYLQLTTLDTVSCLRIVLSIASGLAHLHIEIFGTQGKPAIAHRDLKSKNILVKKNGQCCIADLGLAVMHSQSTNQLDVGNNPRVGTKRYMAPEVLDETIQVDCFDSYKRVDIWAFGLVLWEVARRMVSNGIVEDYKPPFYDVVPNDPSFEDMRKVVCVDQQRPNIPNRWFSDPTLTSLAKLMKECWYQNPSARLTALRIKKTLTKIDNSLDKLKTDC
Experiment: LanthaScreen Eu Kinase Binding Assay, ALK2 inhibition
Details: 1 micromolar concentration
Experimental: Biochemical assays to measure the inhibitory effects of the compounds were performed by ThermoFisher Scientific (Life Technologies). ALK2 inhibition was tested using LanthaScreen™ Eu Kinase Binding Assay screening protocol.

Row | Compound | inhibition at 1 µM
1 | COc1cc(-n2cnc(Nc3nc(C4CC(O)C4)nc4c3cnn4C(C)C)c2)cc(OC)c1OC (centres unmarked) [Compound 58a, 3-(1-isopropyl-4-((1-(3,4,5-trimethoxyphenyl)-1H-imidazol-4-yl)amino)-1H-pyrazolo[3,4-d]pyrimidin-6-yl)cyclobutanol] | > 50%
2 | CCCCCC(C)c1nc(Nc2cn(-c3cc(OC)c(OC)c(OC)c3)cn2)c2cnn(C(C)C)c2n1 (centres unmarked) [Compound 59e, 6-(heptan-2-yl)-1-isopropyl-N-(1-(3,4,5-trimethoxyphenyl)-1H-imidazol-4-yl)-1H-pyrazolo[3,4-d]pyrimidin-4-amine] | > 50%
3 | C=C(C)c1nc2c(c(Nc3cn(-c4cc(OC)c(OC)c(OC)c4)cn3)n1)CCC2 [Compound 60c, 2-(prop-1-en-2-yl)-N-(1-(3,4,5-trimethoxyphenyl)-1H-imidazol-4-yl)-6,7-dihydro-5H-cyclopenta[d]pyrimidin-4-amine] | > 50%
4 | C=C(C)c1nc(Nc2cn(-c3cc(OC)c(OC)c(OC)c3)cn2)c2cccn2n1 [Compound 61c, 2-(prop-1-en-2-yl)-N-(1-(3,4,5-trimethoxyphenyl)-1H-imidazol-4-yl)pyrrolo[2,1-f][1,2,4]triazin-4-amine] | > 50%
5 | C=C(C)c1nc(Nc2cn(-c3cc(OC)c(OC)c(OC)c3)cn2)c2ncsc2n1 [Compound 63c, 5-(prop-1-en-2-yl)-N-(1-(3,4,5-trimethoxyphenyl)-1H-imidazol-4-yl)thiazolo[5,4-d]pyrimidin-7-amine] | > 50%
6 | C=C(C)c1nc(Nc2cn(-c3cc(OC)c(OC)c(OC)c3)cn2)c2ccc(OC)cc2n1 [Compound 64c, 7-methoxy-2-(prop-1-en-2-yl)-N-(1-(3,4,5-trimethoxyphenyl)-1H-imidazol-4-yl)quinazolin-4-amine] | > 50%
7 | C=C(C)c1nc(Nc2cn(-c3cc(OC)c(OC)c(OC)c3)cn2)c2cc(OC)c(OC)cc2n1 [Compound 65c, 6,7-dimethoxy-2-(prop-1-en-2-yl)-N-(1-(3,4,5-trimethoxyphenyl)-1H-imidazol-4-yl)quinazolin-4-amine] | < 50%
8 | COc1cc(-n2cnc(Nc3nc(C(C)C)nn4cccc34)c2)cc(OC)c1OC [Compound 67a, 2-isopropyl-N-(1-(3,4,5-trimethoxyphenyl)-1H-imidazol-4-yl)pyrrolo[2,1-f][1,2,4]triazin-4-amine] | > 50%
9 | C=C(C)c1nc(Nc2cn(-c3cc(OC)c(OC)c(OC)c3)cn2)nc2cc(OC)c(OC)cc12 [Compound 68b, 6,7-dimethoxy-4-(prop-1-en-2-yl)-N-(1-(3,4,5-trimethoxyphenyl)-1H-imidazol-4-yl)quinazolin-2-amine] | > 50%
10 | COc1cc(-n2cnc(Nc3nc(C(C)C)nc4c3OCC4)c2)cc(OC)c1OC [Compound 69a, 2-isopropyl-N-(1-(3,4,5-trimethoxyphenyl)-1H-imidazol-4-yl)-6,7-dihydrofuro[3,2-d]pyrimidin-4-amine] | > 50%
11 | C=C(C)c1nc(Nc2cn(-c3cc(OC)c(OC)c(OC)c3)cn2)c2ccccc2n1 [Compound 70b, 2-(prop-1-en-2-yl)-N-(1-(3,4,5-trimethoxyphenyl)-1H-imidazol-4-yl)quinazolin-4-amine] | > 50%
12 | C=C(C)c1nc2c(c(Nc3cn(-c4cc(OC)c(OC)c(OC)c4)cn3)n1)COC2 [Compound 71c, 2-(prop-1-en-2-yl)-N-(1-(3,4,5-trimethoxyphenyl)-1H-imidazol-4-yl)-5,7-dihydrofuro[3,4-d]pyrimidin-4-amine] | > 50%
13 | COc1cc(-n2cnc(Nc3nc(C(C)C)nc4c3COC4)c2)cc(OC)c1OC [Compound 72a, 2-isopropyl-N-(1-(3,4,5-trimethoxyphenyl)-1H-imidazol-4-yl)-5,7-dihydrofuro[3,4-d]pyrimidin-4-amine] | > 50%
14 | COc1cc(-n2cnc(Nc3nc(C(C)C)nc4ccccc34)c2)cc(OC)c1OC [Compound 73a, 2-isopropyl-N-(1-(3,4,5-trimethoxyphenyl)-1H-imidazol-4-yl)quinazolin-4-amine] | > 50%
15 | C=C(C)c1nc(Nc2cn(-c3cc(OC)c(OC)c(OC)c3)cn2)c2ncn(C(C)C)c2n1 [Compound 74c, 9-isopropyl-2-(prop-1-en-2-yl)-N-(1-(3,4,5-trimethoxyphenyl)-1H-imidazol-4-yl)-9H-purin-6-amine] | > 50%
16 | COc1ccc2c(Nc3cn(-c4cc(OC)c(OC)c(OC)c4)cn3)nc(C(C)C)nc2c1 [Compound 75a, 2-isopropyl-7-methoxy-N-(1-(3,4,5-trimethoxyphenyl)-1H-imidazol-4-yl)quinazolin-4-amine] | > 50%

Row | Compound | inhibition at 1 µM
17 | C=C(C)c1nc2c(c(Nc3cn(-c4cc(OC)c(OC)c(OC)c4)cn3)n1)CCN(C(=O)OC(C)(C)C)C2 [Compound 76c, tert-butyl 2-(prop-1-en-2-yl)-4-((1-(3,4,5-trimethoxyphenyl)-1H-imidazol-4-yl)amino)-5,6-dihydropyrido[3,4-d]pyrimidine-7 (8H)-carboxylate] | < 50%
18 | COc1cc(-n2cnc(Nc3nc(C(C)C)nc4c3CCN(C(=O)OC(C)(C)C)C4)c2)cc(OC)c1OC [Compound 77a, tert-butyl 2-isopropyl-4-((1-(3,4,5-trimethoxyphenyl)-1H-imidazol-4-yl)amino)-5,6-dihydropyrido[3,4-d]pyrimidine-7 (8H)-carboxylate] | > 50%
19 | C=C(C)c1nc(Nc2cn(-c3cc(OC)c(OC)c(OC)c3)cn2)c2ncccc2n1 [Compound 78c, 2-(prop-1-en-2-yl)-N-(1-(3,4,5-trimethoxyphenyl)-1H-imidazol-4-yl)pyrido[3,2-d]pyrimidin-4-amine] | > 50%
20 | COc1cc2nc(C(C)C)nc(Nc3cn(-c4cc(OC)c(OC)c(OC)c4)cn3)c2cc1OC [Compound 79a, 2-isopropyl-6,7-dimethoxy-N-(1-(3,4,5-trimethoxyphenyl)-1H-imidazol-4-yl)quinazolin-4-amine] | < 50%
21 | C=C(C)c1nc(Nc2cn(-c3cc(OC)c(OC)c(OC)c3)cn2)c2ccsc2n1 [Compound 80c, 2-(prop-1-en-2-yl)-N-(1-(3,4,5-trimethoxyphenyl)-1H-imidazol-4-yl)thieno[2,3-d]pyrimidin-4-amine] | > 50%
22 | COc1cc(-n2cnc(Nc3nc(C(C)C)nc4sccc34)c2)cc(OC)c1OC [Compound 81a, 2-isopropyl-N-(1-(3,4,5-trimethoxyphenyl)-1H-imidazol-4-yl)thieno[2,3-d]pyrimidin-4-amine] | > 50%
23 | C=C(C)c1nc(Nc2cn(-c3cc(OC)c(OC)c(OC)c3)cn2)c2cccnc2n1 [Compound 82c, 2-(prop-1-en-2-yl)-N-(1-(3,4,5-trimethoxyphenyl)-1H-imidazol-4-yl)pyrido[2,3-d]pyrimidin-4-amine] | > 50%
24 | COc1cc(-n2cnc(Nc3nc(C(C)C)nc4cccnc34)c2)cc(OC)c1OC [Compound 83a, 2-isopropyl-N-(1-(3,4,5-trimethoxyphenyl)-1H-imidazol-4-yl)pyrido[3,2-d]pyrimidin-4-amine] | > 50%
25 | C=C(C)c1nc(Nc2cn(-c3cc(OC)c(OC)c(OC)c3)cn2)c2sc(C)cc2n1 [Compound 84c, 6-methyl-2-(prop-1-en-2-yl)-N-(1-(3,4,5-trimethoxyphenyl)-1H-imidazol-4-yl)thieno[3,2-d]pyrimidin-4-amine] | > 50%
26 | COc1cc(-n2cnc(Nc3nc(C(C)C)nc4cc(C)sc34)c2)cc(OC)c1OC [Compound 85a, 2-isopropyl-6-methyl-N-(1-(3,4,5-trimethoxyphenyl)-1H-imidazol-4-yl)thieno[3,2-d]pyrimidin-4-amine] | > 50%
27 | COc1cc(-n2cnc(Nc3nc(C(C)C)nc4c3CCNC4)c2)cc(OC)c1OC [Compound 86a, 2-isopropyl-N-(1-(3,4,5-trimethoxyphenyl)-1H-imidazol-4-yl)-5,6,7,8-tetrahydropyrido[3,4-d]pyrimidin-4-amine] | > 50%
28 | COc1cc2nc(Nc3cn(-c4cc(OC)c(OC)c(OC)c4)cn3)nc(C(C)C)c2cc1OC [Compound 87a, 4-isopropyl-6,7-dimethoxy-N-(1-(3,4,5-trimethoxyphenyl)-1H-imidazol-4-yl)quinazolin-2-amine] | > 50%
29 | C=C(C)c1nc2c(c(Nc3cn(-c4cc(OC)c(OC)c(OC)c4)cn3)n1)CCCC2 [Compound 88c, 2-(prop-1-en-2-yl)-N-(1-(3,4,5-trimethoxyphenyl)-1H-imidazol-4-yl)-5,6,7,8-tetrahydroquinazolin-4-amine] | > 50%
30 | COc1cc(-n2cnc(Nc3nc(C(C)C)nc4c3CCCC4)c2)cc(OC)c1OC [Compound 89a, 2-isopropyl-N-(1-(3,4,5-trimethoxyphenyl)-1H-imidazol-4-yl)-5,6,7,8-tetrahydroquinazolin-4-amine] | > 50%
31 | C=C(C)c1nc(Nc2cn(-c3cc(OC)c(OC)c(OC)c3)cn2)nc2sccc12 [Compound 90b, 4-(prop-1-en-2-yl)-N-(1-(3,4,5-trimethoxyphenyl)-1H-imidazol-4-yl)thieno[2,3-d]pyrimidin-2-amine] | > 50%
32 | COc1cc(-n2cnc(Nc3nc(C(C)C)c4ccsc4n3)c2)cc(OC)c1OC [Compound 91a, 4-isopropyl-N-(1-(3,4,5-trimethoxyphenyl)-1H-imidazol-4-yl)thieno[2,3-d]pyrimidin-2-amine] | > 50%
